Converted amounts (≈) assume the structure as drawn. Read-outs that look alike come from different tables or passages of the source.
Experiments:
[1] = pH 6.8
From the text: (§1) For assessment of drug permeability, we relied on parallel artificial membrane permeability assay (PAMPA) performed at Pion Inc. with the PAMPA Evolution™ instrument (Table S1, ESI ^†).
(§2) methods (ESOL model1 and Ali et al.2) PAMPA: Pe is effective permeability (x10-6 cm/sec)
(§3) measured directly from assay at pH 6.8 and %R is membrane retention.
(§4) as the average of quadruplicates. Und label refers to compounds with extremely low solubility
(§5) for which UV limits were below the detection limits therefore considered undetected.
(§6) Compounds were labelled as high permeability (green), medium permeability (orange) or low
(§7) Artificial Membrane Permeability (PAMPA):
(§8) The PAMPA Evolution™ instrument was used to determine permeability, at Pion Inc. In
(§9) PAMPA, a sandwich is formed such that each composite well is divided into two chambers,
(§10) measured at pH 6.8 in the donor compartment using low-binding, low UV Prisma buffer. The
(§11) drug-free acceptor compartment was filled with acceptor sink buffer containing a scavenger at
(§12) the start of the test. The proprietary scavenger mimics serum proteins and blood circulation,
(§13) thus creating sink conditions. Aqueous solutions of studied compounds are prepared by diluting
(§14) and thoroughly mixing 3 µL of DMSO stock in 600 µL of Prisma HT buffer. Final
(§15) concentration of organic solvent (DMSO) in aqueous buffer is ≤ 0.5% (v/v). The reference
(§16) solution is identical to the donor at time zero, so that any surface adsorption effects from the
(§17) plastic ware is compensated. The PAMPA sandwich was assembled and allowed to incubate
(§18) for ~15 hours. The solutions in the donor compartment were un-stirred within duration of the
(§19) experiment. Thus, the thickness of the aqueous boundary layer expected to be about 1000 µm.
(§20) The sandwich was then separated, and both the donor and receiver compartments were assayed
(§21) for the amount of drug present by comparison with the UV spectrum obtained from reference

[2] = target: T1, recombinant human BMX protein (hBMX) (Homo sapiens, UniProt P51813); experiment: Differential scanning fluorimetry (DSF); type: binding; conditions: 100 μM compound; for ΔTm / ΔTm at 100 µM: versus apo-BMX; for Average Tm of BMX with compound: apo-BMX Tm 51.8-52.2 °C; for ΔTm at 100 µM: read-out: ΔTm
T1 construct: Crystallization, data collection, and structure determination of BMX catalytic domain in; made in house; host or cells: Sf-9 insect cells

[3] = Dynamic light scattering, colloidal aggregation; type: physicochemical; conditions: measured at 10 µM, 1 µM and 100 nM, 25 °C, read-out: DLS maximum soluble concentration at which no aggregates are observed
Method: In addition, we measured particle sizes by using dynamic light scattering (DLS).
DLS is measured at 10 µM, 1µM and 100 nM. The maximum soluble
concentration – at which no aggregates are observed - is indicated and the colour code indicates
Dynamic Light Scattering:
Dynamic light scattering (Zetasizer Nano S, Malvern, UK) was used to determine compound colloidal aggregation. […] A 10 mM stock solution of
test compounds was prepared in DMSO, following dilution to deionized and filtered water to
obtain an analyte solution of 10 μM (0.1% DMSO). Colloidal aggregation was measured
through sequential dilutions at 10 μM, 1 μM and 0.1 μM.

in vitro = conditions: PAMPA, pH 6.8, PAMPA/Pe effective permeability
From the text: as §1, §2, §3, §4, §5, §6, §7, §8, §9, §10, §11, §12, §13, §14, §15, §16, §17, §18, §19, §20, §21

BMX = target: T2, BMX (Homo sapiens, UniProt P51813); experiment: BMX biochemical activity assay (HTRF, phosphorylation of a biotinylated peptide); conditions: for IC50: read-out: BMX IC50
T2 sequence (P51813 1-675): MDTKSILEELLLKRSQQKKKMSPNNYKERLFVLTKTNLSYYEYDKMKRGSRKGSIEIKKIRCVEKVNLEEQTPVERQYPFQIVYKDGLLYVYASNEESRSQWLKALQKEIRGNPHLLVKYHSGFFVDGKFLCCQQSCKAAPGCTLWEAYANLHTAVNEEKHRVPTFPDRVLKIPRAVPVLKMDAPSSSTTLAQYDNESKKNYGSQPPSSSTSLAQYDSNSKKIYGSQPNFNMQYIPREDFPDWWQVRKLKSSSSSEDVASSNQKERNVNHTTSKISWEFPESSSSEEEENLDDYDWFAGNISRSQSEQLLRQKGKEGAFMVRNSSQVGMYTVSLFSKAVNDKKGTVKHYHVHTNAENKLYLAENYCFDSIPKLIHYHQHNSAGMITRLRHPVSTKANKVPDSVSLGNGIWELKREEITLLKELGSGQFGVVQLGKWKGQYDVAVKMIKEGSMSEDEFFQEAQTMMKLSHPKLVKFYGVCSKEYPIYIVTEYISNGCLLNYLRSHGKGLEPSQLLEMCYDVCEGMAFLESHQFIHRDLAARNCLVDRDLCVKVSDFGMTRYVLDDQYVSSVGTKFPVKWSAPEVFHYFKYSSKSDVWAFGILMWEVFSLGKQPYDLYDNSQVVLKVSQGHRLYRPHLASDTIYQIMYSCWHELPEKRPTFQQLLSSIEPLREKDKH

[4] = deionized and filtered water (0.1% DMSO), kinetic from dmso stock
[5] = Experiment 1 of Fig. S3, control JS9A (in-house BMX-IN-1)
[6] = relative to the control of the same set of experiments
[7] = Experiment 2 of Fig. S3, control commercial BMX-IN-1
[8] = Experiment 3 of Fig. S3, control commercial BMX-IN-1

Question: For Cc1ccc(-n2c(=O)ccc3cnc4ccc(-c5ccc(NS(C)(=O)=O)cc5)cc4c32)cc1NCC=CC#N (mixture of isomers) [JS12], which PAMPA/%R membrane retention [1] is on record?
Answer: 39±2%

Question: And the PAMPA/Pe effective permeability [1]?
Answer: 45±3 x10-6 cm/sec

Question: And the ΔTm [2]?
Answer: 0.13±0.06 °C

Question: And the “Average Tm of BMX with compound” value [2]?
Answer: 52.05±0.06 °C

Question: And the solubility ([3]; water)?
Answer: 0.1 µM

Question: For COC(=O)C=CCNc1cc(-n2c(=O)ccc3cnc4ccc(-c5ccc(NS(C)(=O)=O)cc5)cc4c32)ccc1C (mixture of isomers) [JS13], which PAMPA/%R membrane retention [1] is on record?
Answer: 30±16%

Question: What about the PAMPA/Pe effective permeability [1] of the same molecule?
Answer: 45±9 x10-6 cm/sec

Question: What about the ΔTm [2] of the same molecule?
Answer: 0.52±0.06 °C

Question: And the “Average Tm of BMX with compound” value [2]?
Answer: 52.44±0.06 °C

Question: And the solubility ([3]; water)?
Answer: 0.1 µM

Question: Which results are given for C=CC(=O)Nc1cc(C)cc(-n2c(=O)ccc3cnc4ccc(-c5ccc(NS(C)(=O)=O)cc5)cc4c32)c1 [JS9B, N-(3-methyl-5-(9-(4-(methylsulfonamido)phenyl)-2-oxobenzo[h][1,6]naphthyridin-1(2H)-yl)phenyl)acrylamide]?
Answer: PAMPA/%R membrane retention [1]: 35±7%; Papp (in vitro): 7.1 ± 2.3 ×10⁻⁶ cm/s; ΔTm at 100 µM [2]: 7.75 ± 0.11 °C; Average Tm of BMX with compound [2]: 59.68±0.11 °C; solubility [3, 4]: < 0.1 µM; IC50 (BMX; [5]): 240 ± 25 nM

Question: What does the source list for C=CC(=O)Nc1ccc(C)c(-n2c(=O)ccc3cnc4ccc(-c5ccc(NS(C)(=O)=O)cc5)cc4c32)c1 [JS9C, N-(4-methyl-3-(9-(4-(methylsulfonamido)phenyl)-2-oxobenzo[h][1,6]naphthyridin-1(2H)-yl)phenyl)acrylamide]?
Answer: PAMPA/%R membrane retention [1]: 51±6%; Papp (in vitro): 11 ± 1 ×10⁻⁶ cm/s; ΔTm at 100 µM [2]: 2.2 ± 0.06 °C; Average Tm of BMX with compound [2]: 54.12±0.06 °C; solubility [3, 4]: 1 µM (≈ 0.525 µg/mL); IC50 (BMX; [5]): 6900 ± 2920 nM; BMX potency loss (fold) against control BMX-IN-1 (BMX; [6]): abolishes target inhibition

Question: What does the source list for C=CC(=O)Nc1cccc(-n2c(=O)ccc3cnc4ccc(-c5ccc(NS(C)(=O)=O)cc5)cc4c32)c1 [JS9D]?
Answer: PAMPA/%R membrane retention [1]: 48±3%; PAMPA/Pe effective permeability [1]: 11±1 x10-6 cm/sec; ΔTm [2]: 7.74±0.01 °C; Average Tm of BMX with compound [2]: 59.66±0.01 °C; solubility ([3]; water): 1 µM (≈ 0.511 µg/mL); IC50 (BMX; [5]): 59 ± 5 nM; BMX potency gain (fold) against BMX-IN-1 (BMX; [6]): 6 fold

Question: For C=CC(=O)Nc1cc(-n2c(=O)ccc3cnc4ccc(-c5ccc(NS(C)(=O)=O)cc5)cc4c32)ccc1OC [JS9E], which PAMPA/%R membrane retention [1] is on record?
Answer: 55±8%

Question: And the PAMPA/Pe effective permeability [1]?
Answer: 40±5 x10-6 cm/sec

Question: What about the ΔTm [2] of the same molecule?
Answer: 6.05±0.01 °C

Question: What about the “Average Tm of BMX with compound” value [2] of the same molecule?
Answer: 57.97±0.01 °C

Question: What about the solubility ([3]; water) of the same molecule?
Answer: 1 µM (≈ 0.541 µg/mL)

Question: What about the IC50 (BMX; [5]) of the same molecule?
Answer: 1300 ± 206 nM

Question: What about the “BMX potency loss (fold) against control BMX-IN-1” value (BMX; [6]) of the same molecule?
Answer: 4 fold

Question: For C=CC(=O)Nc1cc(-n2c(=O)ccc3cnc4ccc(-c5ccc(NS(=O)(=O)CCCC)cc5)cc4c32)ccc1C [JS14], which PAMPA/Pe effective permeability [1] is on record?
Answer: Und

Question: And the ΔTm [2]?
Answer: 7.61±0.11 °C

Question: What about the “Average Tm of BMX with compound” value [2] of the same molecule?
Answer: 59.53±0.11 °C

Question: What about the solubility ([3]; water) of the same molecule?
Answer: 0.1 µM (≈ 0.0567 µg/mL)

Question: What about the IC50 (BMX; [7]) of the same molecule?
Answer: 890 ± 27 nM

Question: With C=CC(=O)Nc1cc(-n2c(=O)ccc3cnc4ccc(-c5cccc(NS(C)(=O)=O)c5)cc4c32)ccc1C [JS15] as the molecule, how does the PAMPA/%R membrane retention [1] read?
Answer: 17±24%

Question: What about the PAMPA/Pe effective permeability [1] of the same molecule?
Answer: 30±18 x10-6 cm/sec

Question: And the ΔTm [2]?
Answer: 8.79±0.28 °C

Question: And the “Average Tm of BMX with compound” value [2]?
Answer: 60.72±0.28 °C

Question: And the solubility ([3]; water)?
Answer: 1 µM (≈ 0.525 µg/mL)

Question: What about the IC50 (BMX; [8]) of the same molecule?
Answer: 119 ± 11.4 nM

Question: What does the source list for C=CC(=O)Nc1cc(-n2c(=O)ccc3cnc4ccc(-c5ccncc5)cc4c32)ccc1C [JS17]?
Answer: PAMPA/%R membrane retention [1]: 10±3%; PAMPA/Pe effective permeability [1]: 24±1 x10-6 cm/sec; ΔTm [2]: 7.62±0.01 °C; Average Tm of BMX with compound [2]: 59.55±0.01 °C; IC50 (BMX; [7]): 45 ± 10 nM

Question: Which results are given for C=CC(=O)Nc1cc(-n2c(=O)ccc3cnc4ccc(-c5ccc(C#N)nc5)cc4c32)ccc1C [JS18]?
Answer: PAMPA/%R membrane retention [1]: 18±5%; PAMPA/Pe effective permeability [1]: 24±2 x10-6 cm/sec; ΔTm [2]: 7.49±0.11 °C; Average Tm of BMX with compound [2]: 59.42±0.11 °C; solubility ([3]; water): < 0.1 µM; IC50 (BMX; [7]): 140 ± 12 nM

Question: Which results are given for C=CC(=O)Nc1cc(-n2c(=O)ccc3cnc4ccc(-c5ccc(C(F)(F)F)nc5)cc4c32)ccc1C [JS19]?
Answer: PAMPA/Pe effective permeability [1]: Und; Average Tm of BMX with compound [2]: 58.64±0.13 °C; solubility ([3]; water): < 0.1 µM; IC50 (BMX; [7]): 470 ± 179 nM

Question: With C=CC(=O)Nc1cc(-n2c(=O)ccc3cnc4ccc(N5CCCCC5)cc4c32)ccc1C [JS20] as the molecule, how does the PAMPA/%R membrane retention [1] read?
Answer: 18±1%

Question: What about the PAMPA/Pe effective permeability [1] of the same molecule?
Answer: 30±2 x10-6 cm/sec

Question: And the ΔTm [2]?
Answer: 7.36±0.11 °C

Question: And the “Average Tm of BMX with compound” value [2]?
Answer: 59.29±0.11 °C

Question: What about the IC50 (BMX; [7]) of the same molecule?
Answer: 42 ± 13 nM

Question: With C=CC(=O)Nc1cc(-n2c(=O)ccc3cnc4ccc(N5CCOCC5)cc4c32)ccc1C [JS21] as the molecule, how does the PAMPA/%R membrane retention [1] read?
Answer: 19±3%

Question: What about the PAMPA/Pe effective permeability [1] of the same molecule?
Answer: 22±1 x10-6 cm/sec

Question: And the ΔTm [2]?
Answer: 8.57±0.06 °C

Question: And the “Average Tm of BMX with compound” value [2]?
Answer: 60.50±0.06 °C

Question: What about the IC50 (BMX; [7]) of the same molecule?
Answer: 43 ± 5 nM

Question: Which PAMPA/%R membrane retention [1] does the source give for C=CC(=O)Nc1cc(-n2c(=O)ccc3cnc4ccc(N5CCN(S(C)(=O)=O)CC5)cc4c32)ccc1C [JS22] here?
Answer: 19±6%

Question: And the PAMPA/Pe effective permeability [1]?
Answer: 18±1 x10-6 cm/sec

Question: And the ΔTm [2]?
Answer: 8.79±0.21 °C

Question: What about the “Average Tm of BMX with compound” value [2] of the same molecule?
Answer: 60.72±0.21 °C

Question: And the IC50 (BMX; [8])?
Answer: 93.8 ± 0.87 nM

Question: With C=CC(=O)Nc1cc(-n2c(=O)ccc3cnc4ccc(N5CCC(N(C)C)CC5)cc4c32)ccc1C [JS23] as the molecule, how does the PAMPA/%R membrane retention [1] read?
Answer: 39±5%

Question: What about the PAMPA/Pe effective permeability [1] of the same molecule?
Answer: 2.2±0.2 x10-6 cm/sec

Question: What about the ΔTm [2] of the same molecule?
Answer: 8.66±0.11 °C

Question: What about the “Average Tm of BMX with compound” value [2] of the same molecule?
Answer: 60.59±0.11 °C

Question: What about the IC50 (BMX; [7]) of the same molecule?
Answer: 41 ± 6 nM

Question: Which PAMPA/%R membrane retention [1] does the source give for C=CC(=O)Nc1cc(-n2c(=O)ccc3cnc4ccc(Br)cc4c32)ccc1C [JS29] here?
Answer: 1±1%

Question: What about the PAMPA/Pe effective permeability [1] of the same molecule?
Answer: 32±4 x10-6 cm/sec

Question: What about the IC50 (BMX; [7]) of the same molecule?
Answer: 44 ± 2 nM
